Reference: patent US6825348B2, “Antiviral compounds” (Academia Sinica, priority 2002, dated 2004)
Converted amounts (≈) assume the structure as drawn. Where two headings read alike, the source gives them in different places.

Columns and labels:
[1] = target: T1, calf mucosal adenosine deaminase (ADA, EC 3.5.4.4) (Bos taurus, UniProt P56658); experiment: Substrate activity and competitive inhibition of adenosine deaminase; format: biochemical; conditions: for Ki: inhibition of ADA with ara-A 3 as substrate
T1 sequence (P56658 1-363): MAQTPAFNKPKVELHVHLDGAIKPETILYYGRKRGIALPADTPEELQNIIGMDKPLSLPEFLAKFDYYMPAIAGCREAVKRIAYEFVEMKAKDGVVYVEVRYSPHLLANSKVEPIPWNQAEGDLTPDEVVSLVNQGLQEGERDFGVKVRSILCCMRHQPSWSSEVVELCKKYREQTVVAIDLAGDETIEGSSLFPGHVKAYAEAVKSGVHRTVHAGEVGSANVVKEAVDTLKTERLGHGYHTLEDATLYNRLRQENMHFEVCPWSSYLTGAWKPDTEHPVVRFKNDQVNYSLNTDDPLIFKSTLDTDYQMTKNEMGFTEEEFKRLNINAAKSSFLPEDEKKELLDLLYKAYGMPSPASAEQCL

PRPP synthetase = PRPP synthetase (UniProt P0A717); experiment: PRPP synthetase reaction, conversion to diphosphates and inhibition of AMP phosphorylation; format: biochemical; conditions: inhibition of AMP phosphorylation, 37° C., 15 min
Protocol: Enzymatic Conversion of Acyclic Nucleoside Phosphonates and Nucleotide 5′-Monophosphate Analog to Their Antivirally Active Diphosphates (Triphosphate Equivalents). Substrate affinities of acyclic nucleoside phosphonates 4, 20, 21, and dinucleotide analog 24 for PRPP synthetase as well as their inhibitory effect against the enzyme were evaluated according to the established procedures. See, e.g., Balzarini et al. (1991) J. Biol. Chem. 266: 8686-8689 and references cited therein. The assays were then terminated after 4 h by the addition of MeOH. HPLC on an anion-exchange Partisphere column was used to analyze the formation of […] 21pp, PMEApp, 4pp, 20pp, and 24pp.

[2] = system: herpes simplex type 1 virus (HSV-1) (KOS); experiment: Inhibition of HSV-1 cytopathogenicity in Vero cell culture; format: cell-based; conditions: Human alphaherpesvirus 1; Vero cell culture; 50% inhibition of virus-induced cytopathogenicity; mean of duplicates; for 1:1 (W/W) mixtures IC50 refers to known antiviral drugs; read-out: IC50 HSV-1 (KOS)
[3] = system: thymidine kinase-deficient (TK−) varicella-zoster virus (YS/R); experiment: microbe, parasite or virus in culture; format: cell-based; conditions: Human alphaherpesvirus 3, Vero, read-out: IC50 TK−VZV (YS/R)
[4] = system: human cytomegalovirus (AD-169); experiment: Inhibition of HCMV cytopathogenicity in Vero cell culture; format: cell-based; conditions: Human betaherpesvirus 5, AD169; Vero cell culture; 50% inhibition of cytopathogenicity; for 1:1 mixtures IC50 refers to known antiviral drugs; read-out: IC50 HCMV (AD-169)
HIV-1 (IIIB) = experiment: microbe, parasite or virus in culture; format: cell-based; conditions: Human immunodeficiency virus 1, IIIB; MT4 cells, average of duplicates; read-out: IC50 HIV-1 (IIIB)
HIV-2 (LAV-2) = experiment: Inhibition of HIV-2 cytopathogenicity in MT4 cells; format: cell-based, human immunodeficiency virus; conditions: Human immunodeficiency virus 2; MT4 cells, average of duplicates; read-out: IC50 HIV-2 (LAV-2)
[5] = system: moloney murine sarcoma virus (MSV); experiment: Inhibition of MSV cytopathogenicity in CEM cells (cell-protection assay); format: cell-based; conditions: Moloney murine sarcoma virus, CCRF-CEM; CEM cells, average of duplicates; read-out: IC50 MSV
HSV-1 (KOS) = experiment: Anti-HSV-1 activity in vivo, HSV-1-induced mortality in NMRI mice; conditions: 6 days; for mean day of animal death / mean day of symptom initiation: terminated day 21; for responders at 100 mg/kg / responders at 150 mg/kg / responders at 250 mg/kg: Human alphaherpesvirus 1, ip, 504 h
MT4 cells = experiment: Toxicity toward MT4 cells
CEM cells = experiment: Toxicity toward CEM cells
HeLa cells = experiment: Toxicity, morphological changes in HeLa cells
Vero cells = experiment: Toxicity, morphological changes in Vero cells
[6] = Lipophilicity, 1-octanol/water partition coefficient
[7] = Solubility in water (phosphate buffer, UV absorbance); conditions: pH 6.8, aqueous buffer, thermodynamic from solid
MSV = conditions: for mean day of animal death / percentage of MSV-infected mice alive at day 21 postinfection / percentage of MSV-infected mice without tumors at day 21 postinfection: two injections; for mean day of tumor initiation: two injections within two days
[8] = 100 mg/kg/day i.p., read-out: percentage of HSV-1-infected mice alive at day 21 postinfection
[9] = 100 mg/kg/day i.p., read-out: percentage of HSV-1-infected mice without symptoms at day 21 postinfection
[10] = 150 mg/kg/day i.p., read-out: percentage of HSV-1-infected mice alive at day 21 postinfection
[11] = 150 mg/kg/day i.p., read-out: percentage of HSV-1-infected mice without symptoms at day 21 postinfection
[12] = 250 mg/kg/day i.p., read-out: percentage of HSV-1-infected mice alive at day 21 postinfection
[13] = 250 mg/kg/day i.p., read-out: percentage of HSV-1-infected mice without symptoms at day 21 postinfection

Nc1ncnc2ncn(CCOCP(=O)(O)O)c12 [Compound 20, 7-[2-(Phosphonomethoxy)ethyl]adenine]
ADA substrate / inhibitor property in words [1]: neither a good substrate nor an inhibitor
Ki [1]: > 0.8 mM
Ki (PRPP synthetase): 16.7 mM
IC50 [2]: 20 µg/mL (≈ 73.2 µM)
IC50 [3]: 8 µg/mL (≈ 29.3 µM)
IC50 [4]: 21 µg/mL (≈ 76.9 µM)
IC50 (HIV-1 (IIIB)): 7.8 µg/mL (≈ 28.6 µM)
IC50 (HIV-2 (LAV-2)): 9.1 µg/mL (≈ 33.3 µM)
IC50 [5]: 27 µg/mL (≈ 98.8 µM)
mean day of animal death (HSV-1 (KOS); 100 mg/kg/day i.p.): 15.4 ± 1.3 days
mean day of symptom initiation (HSV-1 (KOS); 100 mg/kg/day i.p.): 12.8 ± 1.1 days
mean day of animal death (HSV-1 (KOS); 150 mg/kg/day i.p.): 17.8 ± 1.5 days
mean day of symptom initiation (HSV-1 (KOS); 150 mg/kg/day i.p.): 15.0 ± 0.9 days
mean day of animal death (HSV-1 (KOS); 250 mg/kg/day i.p.): 20.0 ± 1.7 days
mean day of symptom initiation (HSV-1 (KOS); 250 mg/kg/day i.p.): 16.8 ± 2.4 days
responders at 100 mg/kg (HSV-1 (KOS); [8]): 70%
responders at 100 mg/kg (HSV-1 (KOS); [9]): 51%
responders at 150 mg/kg (HSV-1 (KOS); [10]): 80%
responders at 150 mg/kg (HSV-1 (KOS); [11]): 62%
responders at 250 mg/kg (HSV-1 (KOS); [12]): 95%
responders at 250 mg/kg (HSV-1 (KOS); [13]): 75%
MT4 cell, concentration reducing the number of viable uninfected cells by 50% (MT4 cells): >300 µg/mL
CEM cell, concentration reducing the number of viable uninfected cells by 50% (CEM cells): >300 µg/mL
HeLa cell, concentration causing microscopically visible change or disruption in about 50% of the cell sheet (HeLa cells): 236 µg/mL
Vero cell, concentration causing microscopically visible change or disruption in about 50% of the cell sheet (Vero cells): 246 µg/mL
logP at […] [6]: 0.95
solubility at 20 h [7]: 2890 µg/mL (≈ 10600 µM)

Nc1ncnc2c1ncn2CCOCP(=O)(O)O [PMEA 4, 9-[2-(phosphonomethoxy)ethyl]adenine, reference compound]
ADA substrate / inhibitor property in words [1]: neither a good substrate nor an inhibitor
Ki [1]: > 0.8 mM
Ki (PRPP synthetase): 3.02 mM
IC50 [2]: 11 µg/mL (≈ 40.3 µM)
IC50 [4]: 15 µg/mL (≈ 54.9 µM)
IC50 (HIV-1 (IIIB)): 4.1 µg/mL (≈ 15 µM)
IC50 (HIV-2 (LAV-2)): 3.8 µg/mL (≈ 13.9 µM)
IC50 [5]: 2 µg/mL (≈ 7.32 µM)
mean day of animal death (HSV-1 (KOS); 100 mg/kg/day i.p.): 17.0 ± 1.1 days
mean day of symptom initiation (HSV-1 (KOS); 100 mg/kg/day i.p.): 14.7 ± 1.4 days
protection against HSV-induced mortality (HSV-1 (KOS); 150 mg/kg dose level i.p.): full protection
mean day of animal death (HSV-1 (KOS); 150 mg/kg/day i.p.): >21 days
mean day of symptom initiation (HSV-1 (KOS); 150 mg/kg/day i.p.): 18.5 ± 1.9 days
mean day of animal death (HSV-1 (KOS); 250 mg/kg/day i.p.): >21 days
mean day of symptom initiation (HSV-1 (KOS); 250 mg/kg/day i.p.): >21 days
responders at 100 mg/kg (HSV-1 (KOS); [8]): 77%
responders at 100 mg/kg (HSV-1 (KOS); [9]): 56%
responders at 150 mg/kg (HSV-1 (KOS); [10]): 100%
responders at 150 mg/kg (HSV-1 (KOS); [11]): 80%
responders at 250 mg/kg (HSV-1 (KOS); [12]): 100%
responders at 250 mg/kg (HSV-1 (KOS); [13]): 100%
mean day of animal death (MSV; 10 mg/kg/day i.p.): 13.0 ± 1.1 days
percentage of MSV-infected mice alive at day 21 postinfection (MSV; 10 mg/kg/day i.p.): (42%)
percentage of MSV-infected mice without tumors at day 21 postinfection (MSV; 10 mg/kg/day i.p.): (19%)
mean day of tumor initiation (MSV; 10 mg/kg/day i.p.): 9.6 ± 1.5 days
percentage of MSV-infected mice without tumors at day 21 postinfection (MSV; 10 mg/kg/day i.p., listed as 4): 19%
mean day of animal death (MSV; 20 mg/kg/day i.p.): 15.9 ± 1.7 days
percentage of MSV-infected mice alive at day 21 postinfection (MSV; 20 mg/kg/day i.p.): (76%)
percentage of MSV-infected mice without tumors at day 21 postinfection (MSV; 20 mg/kg/day i.p.): (58%)
mean day of tumor initiation (MSV; 20 mg/kg/day i.p.): 12.0 ± 1.3 days
mean day of animal death (MSV; 50 mg/kg/day i.p.): 17.8 ± 2.0 days
percentage of MSV-infected mice alive at day 21 postinfection (MSV; 50 mg/kg/day i.p.): (96%)
percentage of MSV-infected mice without tumors at day 21 postinfection (MSV; 50 mg/kg/day i.p.): (84%)
mean day of tumor initiation (MSV; 50 mg/kg/day i.p.): 12.5 ± 1.6 days
MT4 cell, concentration reducing the number of viable uninfected cells by 50% (MT4 cells): 274 µg/mL
CEM cell, concentration reducing the number of viable uninfected cells by 50% (CEM cells): 285 µg/mL
HeLa cell, concentration causing microscopically visible change or disruption in about 50% of the cell sheet (HeLa cells): 146 µg/mL
Vero cell, concentration causing microscopically visible change or disruption in about 50% of the cell sheet (Vero cells): 175 µg/mL
logP at […] [6]: 0.69
solubility at 20 h [7]: 1970 µg/mL (≈ 7210 µM)
